In patent publication US20180312493A1, “Antibiotic Compounds, Pharmaceutical Formulations Thereof And Methods And Uses Therefor” (Simon Fraser University, priority 2015, published 2018):
Converted amounts (≈) assume the structure as drawn. Counter-ions that a name gives are not always drawn. Like-named read-outs stand apart in the source and are kept apart here.

Assays:
[1] = molecular target: T1, MRSA Pyk (Staphylococcus aureus, UniProt Q6GG09); experiment: MRSA pyruvate kinase (PK) activity, continuous LDH-coupled assay; type: biochemical, methicillin resistant S. aureus (MRSA252)
T1 construct: made in house; host or cells: E. coli BL-21 (DE3)
Procedure, shortened: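 Activity monitored continuously as absorbance change at 340 nm from NADH oxidation via coupled lactate dehydrogenase, reactions started with 15 nM recombinant His-tagged PK (MRSA or human isoform) and run at 30° C for up to 5 min. Ki derived by varying inhibitor (0-400 nM) and PEP (2-20 mM) at 2 mM ADP; IC50 by four-parameter fitting.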

[2] = tested on: K. pneumoniae (C238); experiment: In vitro susceptibility, broth microdilution (MIC); type: cell-based; settings: Klebsiella pneumoniae; K. pneumoniae (C238); read-out: Antimicrobial activity (MIC) K. pneumoniae
Procedure, shortened: (§1)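 CLSI 2-fold serial broth microdilution; K. pneumoniae C238 grown in L-broth, S. aureus ATCC 29213 in Mueller Hinton broth, plates incubated 18–24 h at 37 °C. MIC taken as lowest concentration giving complete growth inhibition by OD600 versus compound-free wells, background-subtracted.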

[3] = tested on: S. aureus (ATCC29213); experiment: In vitro susceptibility, broth microdilution (MIC); type: cell-based; settings: Staphylococcus aureus
Procedure, shortened: as §1

[4] = tested on: VRE#2 (2010A); experiment: In vitro susceptibility, broth microdilution (MIC); type: cell-based, vancomycin resistant Enterococci; settings: read-out: Antimicrobial activity (MIC) VRE#2
Procedure, shortened: (§2)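 MIC determined by CLSI 2-fold broth microdilution in cation-adjusted Mueller–Hinton broth at ~2.5×10^5 CFU/ml, final compound 0.031–64 μg/ml, 18–24 h at 37 °C. MIC is the lowest concentration giving complete growth inhibition by background-corrected OD600 versus compound-free wells; duplicate or triplicate wells, replicated at least twice.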

[5] = tested on: A. baumannii (ATCC 19606); experiment: In vitro susceptibility, broth microdilution (MIC); type: cell-based; settings: Acinetobacter baumannii
Source text: (§3) Epidemic methicillin resistant S. aureus (MRSA) strain sequenced at the Sanger Centre (MRSA252, NRS71) was obtained from NARSA (Network on Antimicrobial Resistance in S. aureus). Methicillin sensitive S. aureus (ATCC 29213 and 25923), methicillin resistant S. aureus (ATCC BAA-1762), and Salmonella typhimurium (ATCC BAA-185) were obtained from ATCC, The Global Bioresource Center. Acinetobacter baumannii (ATCC 19606 and ATCC 17978), Klebsiella pneumonia (C238), vancomycin resistant Enterococci #2 (2010A) (VRE#2), MRSA (USA400, MW2) and Pseudomonas aeruginosa (PA0-1) were obtained from the laboratory of Dr B. B. Finlay at the University of British Columbia (Vancouver, Canada).
(§4) The antimicrobial activities of PK inhibitor candidates were determined using the 96-well microtiter standard 2-fold serial broth microdilution method as described by CLSI (formerly NCCLS) with the various gram-positive and gram-negative bacteria species mentioned above. Bacteria from a single colony were grown, overnight in either BHI Broth (VRE), mueller hinton broth (S. aureus 29213; MRSA USA400, A. baumannii 19606, MRSA BAA-1762) or L-broth (P. aeruginosa, S. typhimurium, K. pneumonia and A. baumannii 17978). Each compound was prepared in DMSO with 2-fold serial dilutions to give a final concentration of, 0.031 to 64 μg/ml. 10 μl of the compound solution was then added, in duplicate, to either, 190 μl of cation adjusted mueller hinton broth (CAMHB) or 190 μl CAMHB containing ˜2.5×10^5 CFU/ml of bacteria (final compound concentration 0.031 to 64 μg/ml). Culture plates were incubated for 18-24 h at 37° C., and optical density at 600 nm (OD600) was measured using a Benchmark Plus™ microplate spectrophotometer (Bio-Rad™). The absorbance control values for the series containing CAMHB and inhibitor were subtracted as background from the corresponding infected wells. Minimal inhibitory concentration (MIC) was defined as the lowest concentration of test compound leading to complete inhibition of cell growth in relation to compound-free control wells as determined by optical density. Vancomycin, methicillin and ciprofloxicin were used as reference compounds. All assays were run in triplicate or duplicate. Experiments were replicated at least twice to verify reproducibility using the above conditions.

[6] = tested on: A. baumannii (ATCC 17978); experiment: In vitro susceptibility, broth microdilution (MIC); type: cell-based; settings: Acinetobacter baumannii, ATCC17978; A. baumannii ATCC 17978 (values marked *); read-out: Antimicrobial activity (MIC) A. baumannii
Source text: as §3, §4

[7] = tested on: MRSA (ATCC BAA-1762); experiment: In vitro susceptibility, broth microdilution (MIC); type: cell-based, methicillin resistant S. aureus; settings: Staphylococcus aureus, read-out: Antimicrobial activity (MIC) MRSA ATCC BAA1762
Procedure, shortened: as §2

[8] = S. aureus ATCC29213, 18-24 h, 37 C, read-out: Antimicrobial activity (MIC) S. aureus ATCC29213
[9] = ATCC19606, A. baumannii ATCC 19606 (values without asterisk), read-out: Antimicrobial activity (MIC) A. baumannii

T1 sequence (Q6GG09 whole entry): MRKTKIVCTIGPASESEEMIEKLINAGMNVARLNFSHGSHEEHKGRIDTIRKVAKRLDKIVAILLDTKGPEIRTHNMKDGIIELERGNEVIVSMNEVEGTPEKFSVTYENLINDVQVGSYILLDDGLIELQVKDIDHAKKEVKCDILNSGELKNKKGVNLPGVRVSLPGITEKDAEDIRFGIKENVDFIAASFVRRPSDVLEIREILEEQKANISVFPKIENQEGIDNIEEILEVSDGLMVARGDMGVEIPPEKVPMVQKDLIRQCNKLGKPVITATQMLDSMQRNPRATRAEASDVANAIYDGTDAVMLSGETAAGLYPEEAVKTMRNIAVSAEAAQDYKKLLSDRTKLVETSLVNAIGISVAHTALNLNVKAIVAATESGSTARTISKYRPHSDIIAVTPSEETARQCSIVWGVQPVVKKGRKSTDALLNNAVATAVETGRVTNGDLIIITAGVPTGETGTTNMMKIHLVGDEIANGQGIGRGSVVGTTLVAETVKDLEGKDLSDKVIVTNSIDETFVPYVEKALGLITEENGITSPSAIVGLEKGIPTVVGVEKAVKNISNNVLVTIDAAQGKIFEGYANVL

With `CN1CCC(CCNC(=O)c2c(/C=C/c3ccc(Cl)cc3)[nH]c3cc(Br)ccc23)CC1` [Compound 40, (E)-6-Bromo-2-(4-chlorostyryl)-N-(2-(1-methylpiperidin-4-yl)ethyl)-1 H-indole-3-carboxamide] the IC50 [1] was 100 to 1000 nM, the MIC [2] was 16 µg/mL (≈ 31.9 µM) and the MIC [3, 8] was 8 µg/mL (≈ 16 µM). For the same compound, the MIC ([4]; VRE#2 (2010A)) was 8 µg/mL (≈ 16 µM) and the MIC [5, 9] was greater than 64 µg/mL.

`CN(C)CCNC(=O)c1c(-c2cc3cc(Cl)ccc3[nH]2)[nH]c2cc(Br)ccc12` [Compound 73, 6-Bromo-5′-chloro-N-(2-(dimethylamino)ethyl)-1H,1′H-[2,2′-biindole]-3-carboxamide] gave an IC50 [1] of less than 100 nM, an MIC [2] of 8 µg/mL (≈ 17.4 µM) and an MIC [3, 8] of 8 µg/mL (≈ 17.4 µM). It also gave an MIC ([4]; VRE#2 (2010A)) of 8 µg/mL (≈ 17.4 µM) and an MIC [5, 9] of 64 µg/mL (≈ 139 µM).

Compound `NC(=O)N1CCC(NCCNC(=O)c2c(-c3cc4cc(Cl)ccc4[nH]3)[nH]c3cc(Br)ccc23)CC1` [Compound 131, 6-bromo-N-(2-(1-carbamoylpiperidin-4-ylamino)ethyl)-5′-chloro-1H,1′H-2,2′-biindole-3-carboxamide] has an MIC [3, 8] greater than 64 µg/mL and an MIC [6] of 64 µg/mL (≈ 115 µM).

Work on `COC(CNC(=O)c1c(-c2cc3cc(Cl)ccc3[nH]2)[nH]c2cc(Br)ccc12)OC` [Compound 134, 6-Bromo-5′-chloro-N-(2,2-dimethoxyethyl)-1H,1′H-[2,2′-biindole]-3-carboxamide] yielded an MIC [3, 8] greater than 64 µg/mL and an MIC [6] greater than 64 µg/mL.

Compound `CCOC(CCCNC(=O)c1c(-c2cc3cc(Cl)ccc3[nH]2)[nH]c2cc(Br)ccc12)OCC` [Compound 135, 6-Bromo-5′-chloro-N-(4,4-diethoxybutyl)-1H,1′H-[2,2′-biindole]-3-carboxamide] has an MIC [3, 8] greater than 64 µg/mL and an MIC [6] greater than 64 µg/mL.

With `O=C(NCCN1CCNCC1=O)c1c(-c2cc3cc(Cl)ccc3[nH]2)[nH]c2cc(Br)ccc12` [Compound 143, 6-bromo-5′-chloro-N-(2-(2-oxopiperazin-1-yl)ethyl)-1H,1′H-[2,2′-biindole]-3-carboxamide] the MIC [3, 8] was greater than 64 µg/mL and the MIC [6] was greater than 64 µg/mL.

Work on `COc1cc2sc(NC(=O)Nc3ccccc3)nc2cc1Br` [Compound 153, 1-(5-bromo-6-methoxybenzo[d]thiazol-2-yl)-3-phenylurea] yielded an MIC [3, 8] greater than 64 µg/mL and an MIC [6] greater than 64 µg/mL.

`O=C(Nc1ccc([N+](=O)[O-])cc1)Nc1nc2cc(Br)ccc2s1` [Compound 154, 1-(5-bromobenzo[d]thiazol-2-yl)-3-(4-nitrophenyl)urea] gave an MIC [3, 8] greater than 64 µg/mL and an MIC [6] greater than 64 µg/mL.

`O=C(Nc1nc2cc(Br)ccc2s1)Nc1ccc(Cl)cc1C(F)(F)F` [Compound 157, 1-(5-bromobenzo[d]thiazol-2-yl)-3-(4-chloro-2-(trifluoromethyl)phenyl)urea] showed an MIC [6] greater than 64 µg/mL.

Work on `COC(=O)c1c(NC(=O)Nc2ccc(Cl)cc2)[nH]c2cc(Br)ccc12` [Compound 181, Methyl 6-bromo-2-(3-(4-chlorophenyl)ureido)-1 H-indole-3-carboxylate] yielded an MIC [3, 8] greater than 64 µg/mL and an MIC [6] greater than 64 µg/mL.

In the case of `C[N+](C)(C)CCCNC(=O)COc1cc2[nH]c(-c3cc4ccc(Br)cc4[nH]3)cc2cc1Cl` [Compound 191, 3-(2-((6′-Bromo-5-chloro-1H,1′H-[2,2′-biindol]-6-yl)oxy)acetamido)-N,N,N-trimethylpropan-1-aminium Formate], the IC50 [1] is reported as less than 100 nM, the MIC ([3]; ATCC29213, read-out: Antimicrobial activity (MIC) S. aureus ATCC29213) is reported as 16 µg/mL and the MIC [7] is reported as 16 µg/mL. For the same compound, the MIC [4] was 16 µg/mL and the MIC ([5]; ATCC19606, read-out: Antimicrobial activity (MIC) A. baumannii) was greater than 64 µg/mL.

In the case of `CN1CCN(CCNC(=O)COc2cc3[nH]c(-c4cc5ccc(Br)cc5[nH]4)cc3cc2Cl)C(c2ccccc2)C1` (stereo not shown) [Compound 194, 2-((6′-Bromo-5-chloro-1H,1′H-[2,2′-biindol]-6-yl)oxy)-N-(2-(4-methyl-2-phenylpiperazin-1-yl)ethyl)acetamide], the MIC [3, 8] is reported as greater than 64 µg/mL and the MIC [6] is reported as greater than 64 µg/mL.

`OCCOc1cc2[nH]c(-c3cc4ccc(Br)cc4[nH]3)cc2cc1Cl` [Compound 196, 2-((6′-Bromo-5-chloro-1H,1′H-[2,2′-biindol]-6-yl)oxy)ethan-1-ol] showed an IC50 [1] of less than 100 nM, an MIC [3, 8] of 16 µg/mL (≈ 39.4 µM) and an MIC ([7]; MRSA ATCC BAA-1762) of 8 µg/mL (≈ 19.7 µM). For the same compound, the MIC ([4]; VRE#2 (2010A)) was greater than 64 µg/mL and the MIC [5, 9] was greater than 64 µg/mL.

Compound `CN(C)CC(=O)OCCOc1cc2[nH]c(-c3cc4ccc(Br)cc4[nH]3)cc2cc1Cl` [Compound 197, 2-((6′-Bromo-5-chloro-1H,1′H-[2,2′-biindol]-6-yl)oxy)ethyl Dimethylglycinate] has an IC50 [1] of less than 100 nM, an MIC [3, 8] of 8 µg/mL (≈ 16.3 µM) and an MIC ([7]; MRSA ATCC BAA-1762) of 8 µg/mL (≈ 16.3 µM). It also gave an MIC ([4]; VRE#2 (2010A)) of 8 µg/mL (≈ 16.3 µM) and an MIC [5, 9] greater than 64 µg/mL.

`COc1cc2[nH]c(-c3[nH]c4cc(Br)ccc4c3C(=O)C(F)(F)F)cc2cc1Cl` [Compound 200, 1-(6-Bromo-5′-chloro-6′-methoxy-1H, 1′H-[2,2′-biindol]-3-yl)-2,2,2-trifluoroethan-1-one] showed an IC50 [1] of less than 100 nM, an MIC [3, 8] of 4 µg/mL (≈ 8.48 µM) and an MIC ([7]; MRSA ATCC BAA-1762) of 1 µg/mL (≈ 2.12 µM). For the same compound, the MIC ([4]; VRE#2 (2010A)) was 1 µg/mL (≈ 2.12 µM) and the MIC [5, 9] was greater than 64 µg/mL.

`Clc1cnc2nc(-c3cc4ccc(Br)cc4[nH]3)[nH]c2c1` [Compound 209, 2-(6-Bromo-1H-indol-2-yl)-6-chloro-1H-imidazo[4,5-b]pyridine] gave an MIC [3, 8] greater than 64 µg/mL and an MIC [6] greater than 64 µg/mL.

`Brc1ccc2cc(-c3nc4ncc(Br)cc4[nH]3)[nH]c2c1` [Compound 210, 6-Bromo-2-(6-bromo-1H-indol-2-yl)-1H-imidazo[4,5-b]pyridine] showed an MIC [3, 8] greater than 64 µg/mL and an MIC [6] greater than 64 µg/mL.

Work on `OCCn1c(-c2cc3ccc(Br)cc3[nH]2)nc2cc(Cl)c(Cl)cc21` [Compound 211, 2-(2-(6-Bromo-1H-indol-2-yl)-5,6-dichloro-1H-benzo[d]imidazol-1-yl)ethan-1-ol] yielded an MIC [3, 8] greater than 64 µg/mL and an MIC [6] greater than 64 µg/mL.

With `CN(C)CCn1c(-c2cc3ccc(Br)cc3[nH]2)nc2cc(Cl)c(Cl)cc21` [Compound 212, 2-(2-(6-Bromo-1H-indol-2-yl)-5,6-dichloro-1H-benzo[d]imidazol-1-yl)-N,N-dimethylethan-1-amine] the MIC [3, 8] was greater than 64 µg/mL and the MIC [6] was greater than 64 µg/mL.

For `O=C(O)Cn1c(-c2cc3ccc(Br)cc3[nH]2)nc2cc(Cl)c(Cl)cc21` [Compound 213, 2-(2-(6-Bromo-1H-indol-2-yl)-5,6-dichloro-1H-benzo[d]imidazol-1-yl)acetic Acid], the MIC [3, 8] was greater than 64 µg/mL and the MIC [6] was greater than 64 µg/mL.

Work on `CC(C)(C)OC(=O)CCn1c(-c2cc3ccc(Br)cc3[nH]2)nc2cc(Cl)c(Cl)cc21` [Compound 214, tert-Butyl 3-(2-(6-bromo-1H-indol-2-yl)-5,6-dichloro-1H-benzo[d]imidazol-1-yl)propanoate] yielded an MIC [3, 8] greater than 64 µg/mL and an MIC [6] greater than 64 µg/mL.

`C[N+](C)(CCO/N=C(/c1c(-c2cc3cc(Cl)ccc3[nH]2)[nH]c2cc(Br)ccc12)C(F)(F)F)CC(=O)[O-]` [Compound 223, 2-((2-(((1-(6-Bromo-5′-chloro-1H,1′H-[2,2′-biindol]-3-yl)-2,2,2-trifluoroethylidene)amino)oxy)ethyl)dimethylammonio)acetate] was tested, and the IC50 [1] was 100 to 1000 nM, the MIC [3, 8] was 16 µg/mL (≈ 27.3 µM) and the MIC ([7]; MRSA ATCC BAA-1762) was 8 µg/mL (≈ 13.7 µM). It also gave an MIC ([4]; VRE#2 (2010A)) of 8 µg/mL (≈ 13.7 µM) and an MIC [5, 9] greater than 64 µg/mL.
